Source: patent publication US4479945A, “Inter-m-phenylene-prostacyclin analogues and use thereof in inhibiting blood platelet aggregation” (Chinoin Gyogyszer Es Vegyeszeti Termekek Gyara R.T., priority 1981, dated 1984)
Converted amounts (≈) assume the structure as drawn. “Also recorded” adds a separate entry of the source.

How the values were obtained:
blood pressure = assay: Antihypertensive activity (blood pressure reduction, ED25) on narcotized rats; format: in vivo, rat; details: for relative anti-hypertensive efficiency ED25 PGI2 /ED25 test-compound: molar dose for 25 mmHg blood pressure reduction, narcotized rats, sodium salts; for hypotensive / antihypertensive side effect (in words): compared with PGI2 or compounds of the state of art
Experimental: The antihypertensive activity was determined on narcotized rats. From the data of the blood pressure tests the molar dose /ED25 / inducing 25 mmHg /3.33 kPa/ blood pressure reduction was calculated.

thrombocyte aggregation [1] = assay: Thrombocyte (blood platelet) aggregation, Payton aggregometer, induced with 2 μM ADP, plasma enriched in thrombocytes (PRP); format: cell-based, human; details: for antiaggregatory activity (in words): compared with PGI2 or compounds of the state of art
Experimental: The thrombocyte aggregation was measured with a Payton type aggregometer of two channels in 0.5 ml. end volume. […] The cubital venal blood was mixed with a 3.8% Na-citrate solution at a ratio of 9:1 and in order to obtain a plasma enriched in thrombocytes (PRP) blood was centrifuged for 5 minutes at 230 g, while plasma poor in thrombocytes was obtained after 10 minutes of centrifuging. The blood platelet number of the plasma was adjusted to […]. The tests were performed within 1 hour after the blood taking. The prostacycline sensitivity of each plasma was controlled before measuring the test substances. IC50 value of prostacycline on plasma enriched in thrombocytes: 0.6-1.0 ng/ml.
Thrombocyte aggregation was induced with 2 μM ADP. The test compounds were dissolved in 0.1M tris-HCl buffer of pH=7.8 and the temperature was maintained at 0° to 4° C.
The compounds were tested repeatedly after some time and were kept in solution at 0°-4° C. IC50 values were calculated graphically.

[2] = test system: coronary arteries of the heart; peripheral circulation vessels; details: literature; cited from earlier work
thrombocyte aggregation [3] = details: literature; cited from earlier work

| SMILES | relative anti-hypertensive efficiency ED25 PGI2 /ED25 test-compound (blood pressure; related to PGI2) | hypotensive / antihypertensive side effect (in words) (blood pressure) | antiaggregatory activity (in words) (thrombocyte aggregation [1]) | other results |
| --- | --- | --- | --- | --- |
| CCCCCC(O)C=CC1C(O)CC2OC(=Cc3cccc(C(=O)O)c3)CC21 (centres unmarked) [45842/A, 5(Z)-2,3,4-trinor-1,5-inter-m-phenylene-PGI2] | 1/10 | – | – | – |
| CCCCC[C@H](O)/C=C/[C@@H]1[C@H]2C/C(=C/CCCC(=O)O)O[C@H]2C[C@H]1O [PGI2] | 1/1 | – | – | IC50 (thrombocyte aggregation [1]; Homo sapiens, Platelet, control of prostacycline sensitivity of each plasma): 0.6 to 1 ng/mL (≈ 1.7 to 2.84 nM); relative anti-aggregatory efficiency IC50 PGI2 /IC50 test-compound (thrombocyte aggregation [1]; related to PGI2, 2 μM ADP, human PRP, sodium salts): 1/1; further physiological activities (in words) [2]: relaxation of the coronary arteries of the heart and dilatation of the peripheral circulation vessels; antiaggregatory and desaggregatory activity (in words) (thrombocyte aggregation [3]): most active antiaggregatory and desaggregatory agent |
| CCCCCCC(O)C#CC1C(O)CC2OC(=Cc3cccc(C(=O)O)c3)CC21 (centres unmarked) [compound "A", 5(Z)-2,3,4-trinor-1,5-inter-m-phenylene-13,14-didehydro-20-methyl-PGI2] | – | less side effects | better activity | – |
| CCCCCCCC(O)C#CC1C(O)CC2OC(=Cc3cccc(C(=O)O)c3)CC21 (centres unmarked) [compound "B", 5(Z)-2,3,4-trinor-inter-m-phenylene-13,14-didehydro-20-ethyl-PGI2] | – | less side effects | better activity; also recorded: substantially the same as that of PGI2 | antihypertensive activity as part of the activity of PGI2 (blood pressure; related to PGI2): about 2/100 |
